{"source": "patent US11766430B2", "about": "“Methods of using a phenoxypropylamine compound to treat pain” (Minerva Neurosciences, Inc., priority 2018, dated 2023)", "tested_on": "carrageenan-induced mechanical hyperalgesia in rats", "test": "Carrageenan-induced mechanical hyperalgesia, paw pressure test, time course to 240 min (Example 2)", "format": "in vivo, male Sprague-Dawley rats", "conditions": "for Effect on injured paw withdrawal threshold vs vehicle-treated group (in words): time course 30-240 min", "description": "In this model, inflammation is induced by intraplantar injection of carrageenan (2%) into the right hindpaw of the rat. Three hours later, reaction thresholds are measured using the paw pressure test. Pressure is gradually applied to both hind paws (inflamed and control) of the rat, and reaction thresholds are determined as the pressure (g) required to elicit paw withdrawal or vocalization. Morphine (3 mg/kg, s.c.) was used as a positive control.\nThe experiments in this study used fifty (50) male Sprague-Dawley rats (SPF status, Janvier, France), each weighing 204-260 grams. The rats were housed in a temperature (20-24° C.) and relative humidity (45%-65%) controlled room and acclimated to an artificial day/night cycle of 12 hours light (6.30 a.m. to 6.30 p.m.)/12 hours darkness. Rats had free access to sterilized tap water and were fed ad libitum with pelleted complete diet (reference A04, S.A.F.E.). Rats were housed 4 per cage (cages Type E) and were acclimated for a period of at least 5 days before any testing. Each rat was identified by tail markings. Based on the SPF status of the animal facilities, there is no reason to expect that contaminants were present in the food, water or bedding, at levels capable of interfering with the results of the tests.\nPain Test: Static mechanical hyperalgesia was assessed using the Paw Pressure test or Randall & Selitto test (Randall, L. O. and Selitto, J. J., A method for measurement of analgesic activity on inflamed tissue, Arch Int Pharmacodyn, 1957(111): 409-419). This test requires the application of an increasing pressure on the hind paws between a flat surface and a blunt pointer. This test is usually used with animals with one hind paw inflamed by an injection or injured by ligation, and one normal hind paw, to evaluate drugs for analgesic action. The apparatus exerts a steadily increasing force and reaction threshold is determined as the pressure (g) required to elicit paw withdrawal and/or vocalization. In the experiment, animals were gently handled by the experimenter and static mechanical hyperalgesia was assessed. Each reaction threshold measurement was done for both hind paws.\nFive (5) experimental groups of 10 rats each were used. Each group was first injected with of 100 μL of a 2% carrageenan suspension in the plantar aspect of the right hindpaw. Three hours after carrageenan injection, paw withdrawal threshold was measured using the paw pressure test (Baseline). The 5 groups were then administered the following: • Group 1: vehicle (0.5% HPMC), i.p., solution (negative control); • Group 2: MIN-117 (0.01 mg/kg, i.p.) in 0.5% HPMC, suspension; • Group 3: MIN-117 (0.1 mg/kg, i.p.) in 0.5% HPMC, suspension; • Group 4: MIN-117 (1 mg/kg, i.p.) in 0.5% HPMC, suspension; and • Group 5: morphine (3 mg/kg, s.c.) in 0.9% NaCl, solution (positive control).\nAfter administering vehicle, MIN-117, or morphine, the antihyperalgesic effect of the compounds was evaluated using the paw pressure test at 0 min. (T0), 30 min., 60 min., 120 min., and 240 min.\nVehicle and MIN-117 were administered intraperitoneally at 10 mL/kg. Morphine was subcutaneously administered at 5 mL/kg. Dosing and testing were performed in a random order by a blinded experimenter except for the morphine-treated group. Doses were expressed in terms of free active substance. Rats were sacrificed at the end of the experiment by CO2 inhalation pending subsequent removal by a certified company.\nResults were assessed as: the paw withdrawal threshold (mean±s.e.m.) in grams of contact pressure for each group, calculated from individual paw withdrawal thresholds; the percentage of variation of the paw withdrawal threshold calculated from the mean value of the vehicle-treated group; and/or the percentage of activity. To determine a statistical effect of the test substance and the reference substance, data were analyzed by a non-parametrical test. The significance level was p<0.05.", "key": {"[1]": {"conditions": "1 mg/kg i.p., T0 (baseline before dosing)"}, "[2]": {"conditions": "1 mg/kg i.p., T0 (baseline before dosing), hydrochloride"}, "[3]": {"conditions": "1 mg/kg i.p., T0 + 30 min, hydrochloride"}}, "note": "Values joined by “and” are separate entries in the source; they are usually repeats but may differ in a detail not shown here. Identical values can stand only once.", "data": [{"smiles": "Cc1nnc(-c2cc3c(OC[C@@H](O)CN4CCC(c5ccc(Cl)c(Cl)c5)CC4)cccc3o2)o1.Cl", "note": "[MIN-117, (2S)-1-(4-(3,4-dichlorophenyl)piperidin-1-yl)-3-((2-(5-methyl-1,3,4-oxadiazol-2-yl)benzofuran-4-yl)oxy)propan-2-ol hydrochloride]", "values": [{"measurement": "Nociceptive threshold, injured paw (mean ± s.e.m.)", "setting": "0.1 mg/kg i.p., T0 (baseline before dosing), hydrochloride", "value": "178 ± 5.5 g and 178 g"}, {"measurement": "% activity, injured paw", "setting": "0.1 mg/kg i.p., T0 + 30 min", "value": 3, "unit": "%"}, {"measurement": "% variation vs control paw, injured paw", "setting": "0.1 mg/kg i.p., T0 + 30 min", "value": "−48", "unit": "%"}, {"measurement": "% variation vs pre-drug threshold, injured paw", "setting": "0.1 mg/kg i.p., T0 + 30 min", "value": 3, "unit": "%"}, {"measurement": "% variation vs vehicle-treated group, injured paw", "setting": "0.1 mg/kg i.p., T0 + 30 min", "value": 3, "unit": "%"}, {"measurement": "Nociceptive threshold, control paw (mean ± s.e.m.)", "setting": "0.1 mg/kg i.p., T0 + 30 min", "value": 354, "unit": "g"}, {"measurement": "Nociceptive threshold, injured paw (mean ± s.e.m.)", "setting": "0.1 mg/kg i.p., T0 + 30 min, hydrochloride", "value": "184 ± 5.0 g and 184 g"}, {"measurement": "% activity, injured paw", "setting": "0.1 mg/kg i.p., T0 + 60 min", "value": "−5", "unit": "%"}, {"measurement": "% variation vs control paw, injured paw", "setting": "0.1 mg/kg i.p., T0 + 60 min", "value": "−48", "unit": "%"}, {"measurement": "% variation vs pre-drug threshold, injured paw", "setting": "0.1 mg/kg i.p., T0 + 60 min", "value": 1, "unit": "%"}, {"measurement": "% variation vs vehicle-treated group, injured paw", "setting": "0.1 mg/kg i.p., T0 + 60 min", "value": "−4", "unit": "%"}, {"measurement": "Nociceptive threshold, control paw (mean ± s.e.m.)", "setting": "0.1 mg/kg i.p., T0 + 60 min", "value": 348, "unit": "g"}, {"measurement": "Nociceptive threshold, injured paw (mean ± s.e.m.)", "setting": "0.1 mg/kg i.p., T0 + 60 min, hydrochloride", "value": "180 ± 7.9 g and 180 g"}, {"measurement": "% activity, injured paw", "setting": "0.1 mg/kg i.p., T0 + 120 min", "value": "−5", "unit": "%"}, {"measurement": "% variation vs control paw, injured paw", "setting": "0.1 mg/kg i.p., T0 + 120 min", "value": "−50", "unit": "%"}, {"measurement": "% variation vs pre-drug threshold, injured paw", "setting": "0.1 mg/kg i.p., T0 + 120 min", "value": 0, "unit": "%"}, {"measurement": "% variation vs vehicle-treated group, injured paw", "setting": "0.1 mg/kg i.p., T0 + 120 min", "value": "−4", "unit": "%"}, {"measurement": "Nociceptive threshold, control paw (mean ± s.e.m.)", "setting": "0.1 mg/kg i.p., T0 + 120 min", "value": 354, "unit": "g"}, {"measurement": "Nociceptive threshold, injured paw (mean ± s.e.m.)", "setting": "0.1 mg/kg i.p., T0 + 120 min, hydrochloride", "value": "178 ± 7.6 g and 178 g"}, {"measurement": "% activity, injured paw", "setting": "0.1 mg/kg i.p., T0 + 240 min", "value": "−4", "unit": "%"}, {"measurement": "% variation vs control paw, injured paw", "setting": "0.1 mg/kg i.p., T0 + 240 min", "value": "−49", "unit": "%"}, {"measurement": "% variation vs pre-drug threshold, injured paw", "setting": "0.1 mg/kg i.p., T0 + 240 min", "value": 1, "unit": "%"}, {"measurement": "% variation vs vehicle-treated group, injured paw", "setting": "0.1 mg/kg i.p., T0 + 240 min", "value": "−3", "unit": "%"}, {"measurement": "Nociceptive threshold, control paw (mean ± s.e.m.)", "setting": "0.1 mg/kg i.p., T0 + 240 min", "value": 350, "unit": "g"}, {"measurement": "Nociceptive threshold, injured paw (mean ± s.e.m.)", "setting": "0.1 mg/kg i.p., T0 + 240 min, hydrochloride", "value": "180 ± 8.4 g and 180 g"}, {"measurement": "Effect on injured paw withdrawal threshold vs vehicle-treated group (in words)", "setting": "0.1 mg/kg i.p.", "value": "did not induce any significant increase"}, {"measurement": "% activity, injured paw", "setting": "[1]", "value": 3, "unit": "%"}, {"measurement": "% variation vs control paw, injured paw", "setting": "[1]", "value": "−50", "unit": "%"}, {"measurement": "% variation vs vehicle-treated group, injured paw", "setting": "[1]", "value": 3, "unit": "%"}, {"measurement": "Nociceptive threshold, control paw (mean ± s.e.m.)", "setting": "[2]", "value": "374.0 ± 12.7 g and 374 g"}, {"measurement": "Nociceptive threshold, injured paw (mean ± s.e.m.)", "setting": "[2]", "value": "188 ± 9.0 g and 188 g"}, {"measurement": "% activity, injured paw", "setting": "1 mg/kg i.p., T0 + 30 min", "value": 1, "unit": "%"}, {"measurement": "% variation vs control paw, injured paw", "setting": "1 mg/kg i.p., T0 + 30 min", "value": "−49", "unit": "%"}, {"measurement": "% variation vs vehicle-treated group, injured paw", "setting": "1 mg/kg i.p., T0 + 30 min", "value": 1, "unit": "%"}, {"measurement": "Nociceptive threshold, control paw (mean ± s.e.m.)", "setting": "1 mg/kg i.p., T0 + 30 min", "value": 356, "unit": "g"}, {"measurement": "% variation vs pre-drug threshold, injured paw", "setting": "[3]", "value": "−4% and 4%"}, {"measurement": "Nociceptive threshold, injured paw (mean ± s.e.m.)", "setting": "[3]", "value": "180 ± 7.3 g and 180 g"}, {"measurement": "% activity, injured paw", "setting": "1 mg/kg i.p., T0 + 60 min", "value": 14, "unit": "%"}, {"measurement": "% variation vs control paw, injured paw", "setting": "1 mg/kg i.p., T0 + 60 min", "value": "−45", "unit": "%"}, {"measurement": "% variation vs pre-drug threshold, injured paw", "setting": "1 mg/kg i.p., T0 + 60 min", "value": 13, "unit": "%"}, {"measurement": "% variation vs vehicle-treated group, injured paw", "setting": "1 mg/kg i.p., T0 + 60 min", "value": 13, "unit": "%"}, {"measurement": "Nociceptive threshold, control paw (mean ± s.e.m.)", "setting": "1 mg/kg i.p., T0 + 60 min", "value": 380, "unit": "g"}, {"measurement": "Nociceptive threshold, injured paw (mean ± s.e.m.)", "setting": "1 mg/kg i.p., T0 + 60 min, hydrochloride", "value": "212 ± 12.4 g and 212 g"}, {"measurement": "% activity, injured paw", "setting": "1 mg/kg i.p., T0 + 120 min", "value": 29, "unit": "%"}, {"measurement": "% variation vs control paw, injured paw", "setting": "1 mg/kg i.p., T0 + 120 min", "value": "−41", "unit": "%"}, {"measurement": "% variation vs pre-drug threshold, injured paw", "setting": "1 mg/kg i.p., T0 + 120 min", "value": 23, "unit": "%"}, {"measurement": "Nociceptive threshold, control paw (mean ± s.e.m.)", "setting": "1 mg/kg i.p., T0 + 120 min", "value": 392, "unit": "g"}, {"measurement": "Nociceptive threshold, injured paw (mean ± s.e.m.)", "setting": "1 mg/kg i.p., T0 + 120 min, hydrochloride", "value": "232 ± 7.4 g and 232 g"}, {"measurement": "% activity, injured paw", "setting": "1 mg/kg i.p., T0 + 240 min", "value": 1, "unit": "%"}, {"measurement": "% variation vs control paw, injured paw", "setting": "1 mg/kg i.p., T0 + 240 min", "value": "−49", "unit": "%"}, {"measurement": "% variation vs pre-drug threshold, injured paw", "setting": "1 mg/kg i.p., T0 + 240 min", "value": 0, "unit": "%"}, {"measurement": "% variation vs vehicle-treated group, injured paw", "setting": "1 mg/kg i.p., T0 + 240 min", "value": 1, "unit": "%"}, {"measurement": "Nociceptive threshold, control paw (mean ± s.e.m.)", "setting": "1 mg/kg i.p., T0 + 240 min", "value": 370, "unit": "g"}, {"measurement": "Nociceptive threshold, injured paw (mean ± s.e.m.)", "setting": "1 mg/kg i.p., T0 + 240 min, hydrochloride", "value": "188 ± 6.1 g and 188 g"}, {"measurement": "Effect on injured paw withdrawal threshold vs vehicle-treated group (in words)", "setting": "1 mg/kg i.p.", "value": "slight increase in the nociceptive threshold becoming significant 120 min. after injection"}]}]}
